From ChEMBL document CHEMBL5465560, “Selectivity Literature for EUbOPEN Chemogenomic Library” (2024)
Blank lines part the entries; values can stand above or below the compound they belong to.

How the values were obtained:
[1] = molecular target: Tyrosine-protein kinase Lyn (Homo sapiens, UniProt P07948); assay: Selectivity interaction (KinaseProfiler screening (Millipore)) EUB0000601a LYN; conditions: at 3 µM
[2] = molecular target: T1, Megakaryocyte-associated tyrosine-protein kinase (Homo sapiens) (UniProt P42679); assay: Selectivity interaction (Ambit KINOMEscan and KiNATiv profiling in Jurkat cells) EUB0000090b MATK; type: cell-based; conditions: at 1 µM
T1 sequence (whole entry): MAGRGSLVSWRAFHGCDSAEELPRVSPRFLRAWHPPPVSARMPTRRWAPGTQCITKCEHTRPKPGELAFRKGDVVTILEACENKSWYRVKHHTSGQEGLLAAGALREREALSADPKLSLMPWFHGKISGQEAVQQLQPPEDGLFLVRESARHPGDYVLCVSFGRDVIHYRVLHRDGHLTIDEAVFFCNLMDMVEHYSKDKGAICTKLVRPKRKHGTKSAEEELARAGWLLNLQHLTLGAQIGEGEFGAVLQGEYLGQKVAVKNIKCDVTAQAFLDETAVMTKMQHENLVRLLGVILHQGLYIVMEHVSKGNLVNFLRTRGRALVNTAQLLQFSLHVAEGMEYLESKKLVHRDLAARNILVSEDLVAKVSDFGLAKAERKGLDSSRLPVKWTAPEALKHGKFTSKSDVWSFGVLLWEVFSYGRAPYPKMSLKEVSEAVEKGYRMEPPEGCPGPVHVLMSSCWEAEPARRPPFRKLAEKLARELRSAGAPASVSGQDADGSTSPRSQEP

[3] = molecular target: T2, Phosphatidylinositol 4,5-bisphosphate 3-kinase catalytic subunit delta isoform (Homo sapiens) (UniProt O00329); assay: Selectivity interaction (Ambit KINOMEscan and KiNATiv profiling in Jurkat cells) EUB0000090b PIK3CD; type: cell-based; conditions: at 1 µM
T2 sequence (whole entry): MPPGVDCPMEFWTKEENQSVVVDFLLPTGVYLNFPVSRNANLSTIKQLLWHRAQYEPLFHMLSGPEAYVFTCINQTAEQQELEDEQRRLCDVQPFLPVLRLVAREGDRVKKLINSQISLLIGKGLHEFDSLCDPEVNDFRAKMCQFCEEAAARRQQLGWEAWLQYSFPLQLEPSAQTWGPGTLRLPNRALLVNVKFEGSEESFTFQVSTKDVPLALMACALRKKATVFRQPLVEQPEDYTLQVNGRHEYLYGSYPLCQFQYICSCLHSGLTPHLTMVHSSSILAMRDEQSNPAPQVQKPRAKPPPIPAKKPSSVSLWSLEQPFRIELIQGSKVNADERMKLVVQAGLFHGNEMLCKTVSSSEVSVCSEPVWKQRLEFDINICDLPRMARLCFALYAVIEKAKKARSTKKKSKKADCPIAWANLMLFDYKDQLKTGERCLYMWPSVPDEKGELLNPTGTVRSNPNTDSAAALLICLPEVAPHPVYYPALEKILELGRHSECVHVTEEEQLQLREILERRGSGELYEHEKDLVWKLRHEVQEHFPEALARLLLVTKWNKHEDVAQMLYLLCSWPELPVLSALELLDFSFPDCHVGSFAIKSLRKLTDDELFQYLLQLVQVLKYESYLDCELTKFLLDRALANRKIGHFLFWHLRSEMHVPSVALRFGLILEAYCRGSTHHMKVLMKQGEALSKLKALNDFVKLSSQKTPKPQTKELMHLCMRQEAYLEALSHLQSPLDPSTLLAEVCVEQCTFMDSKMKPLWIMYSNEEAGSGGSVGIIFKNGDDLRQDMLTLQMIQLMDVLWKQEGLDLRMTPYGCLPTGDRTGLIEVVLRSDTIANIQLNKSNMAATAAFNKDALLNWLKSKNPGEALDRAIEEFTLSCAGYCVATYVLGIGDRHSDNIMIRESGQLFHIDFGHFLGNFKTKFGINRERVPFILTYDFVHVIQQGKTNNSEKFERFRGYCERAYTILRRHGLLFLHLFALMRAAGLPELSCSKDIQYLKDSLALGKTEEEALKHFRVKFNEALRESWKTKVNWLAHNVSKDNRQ

[4] = molecular target: Tyrosine-protein kinase JAK1 (Homo sapiens, UniProt P23458); assay: Selectivity interaction (KinomeScan (DiscoverX)) EUB0000655a JAK1; conditions: at 10 µM
[5] = molecular target: Serine/threonine-protein kinase PRP4 homolog (Homo sapiens) (UniProt Q13523); assay: Selectivity interaction (KinomeScan (DiscoverX)) EUB0000655a PRPF4; conditions: at 10 µM
[6] = molecular target: T3, Mitogen-activated protein kinase kinase kinase kinase 2 (Homo sapiens) (UniProt Q12851); assay: Selectivity interaction (KinomeScan (DiscoverX)) EUB0001079a MAP4K2; conditions: at 1 µM
T3 sequence (whole entry): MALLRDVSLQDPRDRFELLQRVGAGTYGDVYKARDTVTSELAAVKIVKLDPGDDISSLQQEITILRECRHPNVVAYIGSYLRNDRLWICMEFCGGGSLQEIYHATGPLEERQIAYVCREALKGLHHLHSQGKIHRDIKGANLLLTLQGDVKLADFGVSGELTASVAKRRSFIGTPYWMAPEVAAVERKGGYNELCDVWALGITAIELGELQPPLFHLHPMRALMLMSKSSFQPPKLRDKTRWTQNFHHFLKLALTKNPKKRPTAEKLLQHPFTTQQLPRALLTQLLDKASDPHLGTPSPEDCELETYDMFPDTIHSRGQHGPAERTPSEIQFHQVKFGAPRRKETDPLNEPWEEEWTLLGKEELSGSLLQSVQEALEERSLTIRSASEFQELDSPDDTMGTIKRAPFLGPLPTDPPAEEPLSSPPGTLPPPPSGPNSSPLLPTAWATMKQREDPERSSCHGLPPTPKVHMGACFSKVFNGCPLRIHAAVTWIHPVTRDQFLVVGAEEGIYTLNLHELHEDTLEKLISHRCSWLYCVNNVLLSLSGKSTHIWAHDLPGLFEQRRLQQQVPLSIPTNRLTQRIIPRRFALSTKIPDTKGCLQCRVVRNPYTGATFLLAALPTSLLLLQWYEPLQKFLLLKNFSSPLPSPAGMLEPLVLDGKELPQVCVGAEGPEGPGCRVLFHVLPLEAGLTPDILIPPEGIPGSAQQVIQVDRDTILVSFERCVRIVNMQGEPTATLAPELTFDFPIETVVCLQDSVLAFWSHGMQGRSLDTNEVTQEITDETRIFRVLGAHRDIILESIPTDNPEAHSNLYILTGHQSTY

[7] = molecular target: Serine/threonine-protein kinase PAK 4 (Homo sapiens, UniProt O96013); assay: Selectivity interaction (Kinase panel (DSF assay)) EUB0001558a PAK4
[8] = molecular target: Mitogen-activated protein kinase kinase kinase 4 (Homo sapiens) (UniProt Q9Y6R4); assay: Selectivity interaction (Kinase panel (KiNativ target engagement assay in Jurkat cells)) EUB0001635a MAP3K4; type: cell-based; conditions: Selectivity number of off-targets 0.0, Selectivity number of targets 233.0, Source Knowledge https://www.sciencedirect.com/science/article/pii/S2451945619300674?via%3Dihub, at 1 µM
Mitogen-activated protein kinase kinase kinase 4 (Homo sapiens), sequence (Q9Y6R4 whole entry): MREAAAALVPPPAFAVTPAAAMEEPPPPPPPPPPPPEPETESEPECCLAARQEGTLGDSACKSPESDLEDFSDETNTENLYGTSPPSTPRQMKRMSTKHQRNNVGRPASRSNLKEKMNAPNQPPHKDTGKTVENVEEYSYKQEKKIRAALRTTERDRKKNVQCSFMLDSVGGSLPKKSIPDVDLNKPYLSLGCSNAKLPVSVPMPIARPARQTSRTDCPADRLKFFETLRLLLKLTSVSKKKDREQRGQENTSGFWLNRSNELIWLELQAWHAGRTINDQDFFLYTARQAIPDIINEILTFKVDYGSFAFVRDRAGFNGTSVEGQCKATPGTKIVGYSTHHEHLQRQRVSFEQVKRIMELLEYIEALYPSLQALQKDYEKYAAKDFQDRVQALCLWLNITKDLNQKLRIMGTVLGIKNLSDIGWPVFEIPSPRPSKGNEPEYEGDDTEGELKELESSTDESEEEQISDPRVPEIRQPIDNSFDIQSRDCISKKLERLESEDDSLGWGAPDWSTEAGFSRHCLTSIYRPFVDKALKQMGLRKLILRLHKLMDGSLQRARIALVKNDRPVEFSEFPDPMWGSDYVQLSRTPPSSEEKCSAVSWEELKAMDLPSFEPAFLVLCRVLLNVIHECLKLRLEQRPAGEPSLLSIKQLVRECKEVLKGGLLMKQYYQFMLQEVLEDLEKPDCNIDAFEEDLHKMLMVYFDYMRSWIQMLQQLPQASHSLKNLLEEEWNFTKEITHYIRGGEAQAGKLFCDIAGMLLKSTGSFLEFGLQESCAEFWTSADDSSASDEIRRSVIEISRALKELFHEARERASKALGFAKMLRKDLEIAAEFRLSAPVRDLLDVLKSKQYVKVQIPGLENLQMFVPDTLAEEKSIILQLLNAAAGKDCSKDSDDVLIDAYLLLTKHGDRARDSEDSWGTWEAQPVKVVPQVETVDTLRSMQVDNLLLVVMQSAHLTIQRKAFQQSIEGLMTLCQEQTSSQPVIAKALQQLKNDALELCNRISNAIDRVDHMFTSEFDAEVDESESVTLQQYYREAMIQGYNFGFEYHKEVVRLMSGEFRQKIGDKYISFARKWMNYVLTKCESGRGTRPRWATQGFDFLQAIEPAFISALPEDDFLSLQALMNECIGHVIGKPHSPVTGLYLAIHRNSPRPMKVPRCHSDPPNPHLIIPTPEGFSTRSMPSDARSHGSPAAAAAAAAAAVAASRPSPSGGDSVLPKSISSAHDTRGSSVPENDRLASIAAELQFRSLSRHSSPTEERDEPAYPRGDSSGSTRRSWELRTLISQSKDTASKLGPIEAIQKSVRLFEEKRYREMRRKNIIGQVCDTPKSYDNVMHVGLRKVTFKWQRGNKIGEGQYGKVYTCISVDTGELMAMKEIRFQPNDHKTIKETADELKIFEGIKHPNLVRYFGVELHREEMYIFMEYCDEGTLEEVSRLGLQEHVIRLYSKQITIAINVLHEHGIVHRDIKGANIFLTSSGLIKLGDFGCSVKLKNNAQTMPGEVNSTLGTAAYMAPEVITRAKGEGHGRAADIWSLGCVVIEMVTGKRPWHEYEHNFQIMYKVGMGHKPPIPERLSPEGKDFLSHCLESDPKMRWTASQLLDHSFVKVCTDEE

Tyrosine-protein kinase Lyn, sequence (P07948 2-512 limits assumed): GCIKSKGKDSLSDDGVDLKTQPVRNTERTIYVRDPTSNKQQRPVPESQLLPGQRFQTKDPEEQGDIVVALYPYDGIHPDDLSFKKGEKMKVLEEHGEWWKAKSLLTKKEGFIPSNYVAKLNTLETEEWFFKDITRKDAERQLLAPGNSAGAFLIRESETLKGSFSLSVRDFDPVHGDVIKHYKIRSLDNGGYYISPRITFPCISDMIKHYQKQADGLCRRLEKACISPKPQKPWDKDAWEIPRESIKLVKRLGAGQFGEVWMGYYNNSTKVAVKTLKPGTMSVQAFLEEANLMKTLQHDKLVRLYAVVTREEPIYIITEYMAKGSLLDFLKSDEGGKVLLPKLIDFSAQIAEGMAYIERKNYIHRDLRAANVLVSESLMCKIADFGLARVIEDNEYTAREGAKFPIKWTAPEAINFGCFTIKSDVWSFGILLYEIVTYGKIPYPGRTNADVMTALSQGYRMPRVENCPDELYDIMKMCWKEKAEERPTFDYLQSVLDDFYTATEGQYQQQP
Tyrosine-protein kinase JAK1, sequence (P23458 whole entry): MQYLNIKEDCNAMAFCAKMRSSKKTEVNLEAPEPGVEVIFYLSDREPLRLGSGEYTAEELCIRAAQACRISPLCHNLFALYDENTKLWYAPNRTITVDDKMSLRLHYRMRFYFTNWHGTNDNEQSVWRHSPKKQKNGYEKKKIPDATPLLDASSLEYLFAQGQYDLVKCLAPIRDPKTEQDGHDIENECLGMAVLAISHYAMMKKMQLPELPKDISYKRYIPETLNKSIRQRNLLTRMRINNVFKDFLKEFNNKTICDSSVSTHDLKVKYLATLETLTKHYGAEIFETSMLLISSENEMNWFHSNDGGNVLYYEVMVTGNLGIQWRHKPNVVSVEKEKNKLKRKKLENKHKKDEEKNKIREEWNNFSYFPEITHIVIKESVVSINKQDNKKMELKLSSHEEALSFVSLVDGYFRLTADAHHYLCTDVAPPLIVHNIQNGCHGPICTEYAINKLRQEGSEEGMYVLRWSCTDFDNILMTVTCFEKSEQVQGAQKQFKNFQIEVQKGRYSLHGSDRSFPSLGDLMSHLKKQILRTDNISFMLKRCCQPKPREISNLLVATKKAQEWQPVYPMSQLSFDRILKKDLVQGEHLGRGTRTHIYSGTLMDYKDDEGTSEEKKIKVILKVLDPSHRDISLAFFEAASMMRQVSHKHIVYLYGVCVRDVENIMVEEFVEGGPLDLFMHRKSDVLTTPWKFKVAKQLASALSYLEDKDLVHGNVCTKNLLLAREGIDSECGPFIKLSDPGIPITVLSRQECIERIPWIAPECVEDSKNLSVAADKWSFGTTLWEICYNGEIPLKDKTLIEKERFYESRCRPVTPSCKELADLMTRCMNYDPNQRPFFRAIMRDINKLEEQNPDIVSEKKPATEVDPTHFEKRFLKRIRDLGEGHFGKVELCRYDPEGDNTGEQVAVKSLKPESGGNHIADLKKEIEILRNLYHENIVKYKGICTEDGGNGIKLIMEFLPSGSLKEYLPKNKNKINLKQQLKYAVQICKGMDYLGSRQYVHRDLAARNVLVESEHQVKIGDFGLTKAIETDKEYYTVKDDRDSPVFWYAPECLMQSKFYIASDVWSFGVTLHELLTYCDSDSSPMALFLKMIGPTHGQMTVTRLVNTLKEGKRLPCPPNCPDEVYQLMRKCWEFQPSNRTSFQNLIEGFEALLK
Serine/threonine-protein kinase PAK 4, sequence (O96013 whole entry, looked up): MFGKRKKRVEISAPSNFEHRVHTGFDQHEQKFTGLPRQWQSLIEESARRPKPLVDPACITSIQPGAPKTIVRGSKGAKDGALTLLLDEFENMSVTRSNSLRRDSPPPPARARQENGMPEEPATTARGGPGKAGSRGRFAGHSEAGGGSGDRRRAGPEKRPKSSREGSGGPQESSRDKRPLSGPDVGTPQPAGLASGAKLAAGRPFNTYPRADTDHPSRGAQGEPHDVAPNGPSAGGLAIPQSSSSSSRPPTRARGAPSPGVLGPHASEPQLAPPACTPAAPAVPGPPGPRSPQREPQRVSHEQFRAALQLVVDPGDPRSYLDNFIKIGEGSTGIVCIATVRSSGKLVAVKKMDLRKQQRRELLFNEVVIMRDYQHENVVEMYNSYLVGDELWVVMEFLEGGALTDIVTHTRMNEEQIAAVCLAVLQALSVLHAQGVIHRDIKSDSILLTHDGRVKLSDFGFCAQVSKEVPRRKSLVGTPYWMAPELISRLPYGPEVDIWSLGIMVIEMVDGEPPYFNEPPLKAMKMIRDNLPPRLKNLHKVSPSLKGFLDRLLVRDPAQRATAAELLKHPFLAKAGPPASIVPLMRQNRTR
Serine/threonine-protein kinase PRP4 homolog (Homo sapiens), sequence (Q13523 whole entry): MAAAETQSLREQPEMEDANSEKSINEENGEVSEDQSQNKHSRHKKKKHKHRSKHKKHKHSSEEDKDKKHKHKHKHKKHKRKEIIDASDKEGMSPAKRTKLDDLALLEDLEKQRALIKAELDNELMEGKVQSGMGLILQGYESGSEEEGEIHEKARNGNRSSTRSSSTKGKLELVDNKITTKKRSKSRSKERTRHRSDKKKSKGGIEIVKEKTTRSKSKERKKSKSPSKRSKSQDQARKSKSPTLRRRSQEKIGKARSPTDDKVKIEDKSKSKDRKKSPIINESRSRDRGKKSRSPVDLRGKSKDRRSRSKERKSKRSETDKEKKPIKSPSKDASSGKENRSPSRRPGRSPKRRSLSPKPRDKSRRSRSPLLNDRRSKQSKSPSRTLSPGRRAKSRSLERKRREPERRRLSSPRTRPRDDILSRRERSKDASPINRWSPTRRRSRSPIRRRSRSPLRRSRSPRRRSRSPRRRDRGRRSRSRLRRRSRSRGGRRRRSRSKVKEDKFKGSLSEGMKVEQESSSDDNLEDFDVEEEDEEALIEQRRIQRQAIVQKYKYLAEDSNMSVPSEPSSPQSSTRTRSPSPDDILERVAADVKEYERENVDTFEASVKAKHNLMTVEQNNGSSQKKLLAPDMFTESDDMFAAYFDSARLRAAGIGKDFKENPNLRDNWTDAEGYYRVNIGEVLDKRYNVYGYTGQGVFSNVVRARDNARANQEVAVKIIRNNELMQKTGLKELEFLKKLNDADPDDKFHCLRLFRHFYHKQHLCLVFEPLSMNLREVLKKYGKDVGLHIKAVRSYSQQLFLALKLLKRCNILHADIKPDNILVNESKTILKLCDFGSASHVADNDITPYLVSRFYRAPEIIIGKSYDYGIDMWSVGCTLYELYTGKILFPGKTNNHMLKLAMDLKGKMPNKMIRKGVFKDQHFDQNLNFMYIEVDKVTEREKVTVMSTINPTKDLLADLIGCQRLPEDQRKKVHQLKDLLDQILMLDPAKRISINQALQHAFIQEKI

% of inhibition [1]: 37%
SMILES: CCc1cc(Nc2nccc(-c3c(-c4ccc(OC)c(C(=O)Nc5c(F)cccc5F)c4)nc4ccccn34)n2)c(OC)cc1N1CCC(N2CCN(S(C)(=O)=O)CC2)CC1

SMILES: CN(C)C/C=C/C(=O)Nc1ccc(C(=O)N2CCCC(Nc3ncc(Cl)c(-c4c[nH]c5ccccc45)n3)C2)cc1 (stereo not drawn)
% of control [2]: 94%
% of control [3]: 100%

SMILES: CN(C)CCOc1ccc(-c2nc(-c3ccncc3)c(-c3ccc4c(c3)CC/C4=N\O)[nH]2)cc1
% of control [4]: 100%
% of control [5]: 84%

SMILES: Nc1cnc(N2CCc3cc(S(=O)(=O)Nc4c(F)cc(Cl)cc4F)cc(N4CCCC4=O)c32)nc1 [TP-020n]
% of control [6]: 90%

SMILES: CC(C)(O)[C@H](F)CN1Cc2cc(NC(=O)c3cnn4cccnc34)c(N3CCOCC3)cc2C1=O
dTM [7]: 1.1 K

SMILES: C=CC(=O)Nc1ccc(C(=O)Nc2[nH]nc3c2CN(C(=O)N[C@H](CN(C)C)c2ccccc2)C3(C)C)cc1
% of engagement [8]: -2.6%
